# Test results from ChEMBL document CHEMBL3098018, “Synthesis of licochalcone analogues with increased anti-inflammatory activity” (Bioorg Med Chem Lett, 2014).
# pIC50: −log10 of the molar value.
# How the values were obtained:
# [1] = Antiinflammatory activity in RBL2H3 cells assessed as inhibition of degranulation; type: functional, cell-based; conditions: Rattus norvegicus, RBL-2H3
# RAW264.7 [2] = assay: Antiinflammatory activity in mouse RAW264.7 cells assessed as inhibition of LPS-stimulated nitric oxide production after 18 hrs by Griess assay; type: functional, cell-based; conditions: RAW264.7, 18 h
# RAW264.7 [3] = assay: Cytotoxicity against mouse RAW264.7 cells assessed as cell viability at 20 uM after 24 hrs by MTS assay; type: cell-based; conditions: raw264.7, 24 h
# RAW264.7 [4] = assay: Antiinflammatory activity in mouse RAW264.7 cells assessed as inhibition of LPS-stimulated nitric oxide production at 2 uM after 18 hrs by Griess assay relative to control; type: functional; conditions: RAW264.7, 18 h
# RAW264.7 [5] = assay: Antiinflammatory activity in mouse RAW264.7 cells assessed as inhibition of LPS-stimulated nitric oxide production at 20 uM after 18 hrs by Griess assay relative to control; type: functional; conditions: RAW264.7, 18 h
# RAW264.7 [6] = assay: Cytotoxicity against mouse RAW264.7 cells assessed as cell viability at 20 uM after 24 hrs by MTS assay; conditions: raw264.7, 24 h
SMILES,pIC50 [1],pIC50 (RAW264.7 [2]),Activity (RAW264.7 [3]),inhibition at 2 µM (RAW264.7 [4]) [%],inhibition at 20 µM (RAW264.7 [5]) [%],Activity (RAW264.7 [6])
COc1c(/C=C/C(=O)c2ccc(O)cc2)ccc(O)c1CC=C(C)C,4.62,,,,,
COc1c(/C=C/C(=O)c2ccc(O)cc2)ccc(O)c1O,< 4.52,5.00,Non-toxic,17.2,69.6,
C=C(C)C(C)c1cc(C(=O)/C=C/c2ccc(O)c(O)c2OC)ccc1O (stereo not drawn),,5.31,Toxic,56.5,94.3,Toxic
COc1c(/C=C/C(=O)c2ccc(O)cc2O)ccc(O)c1O,,5.33,Non-toxic,71.1,96.5,
COc1c(/C=C/C(=O)c2ccc(O)c(O)c2)ccc(O)c1O,,5.00,Non-toxic,-6,92.5,
C=CC(C)(C)c1cc(C(=O)/C=C/c2ccc(O)c(O)c2OC)ccc1O,,5.63,Toxic,75.9,96.1,Toxic
COc1cc(O)ccc1/C=C/C(=O)c1ccc(O)cc1 [ECHINATIN],< 4.52,,,,,
O=C(/C=C/c1ccc(O)cc1)c1ccc(O)cc1O [ISOLIQUIRITIGENIN],< 4.52,,,,,
C=CC(C)(C)c1cc(/C=C/C(=O)c2ccc(O)cc2)c(OC)cc1O [LICOAGROCHACONE A],4.77,,,,,
COc1c(/C=C/C(=O)c2ccc(O)c(CC=C(C)C)c2)ccc(O)c1O [LICOCHALCONE D],4.68,5.31,Toxic,57.8,95.4,Toxic
